From ChEMBL document CHEMBL3885861, “Open TG-GATES”

Organism: Rattus norvegicus
Assay: Open TG-GATES - Regimen: Daily Repeat
Assay type: toxicity, organism-based, Sprague-Dawley
Set-up: regimen Daily Repeat, gender Male, age 6 weeks
Details: in vivo, po, 0 mg/kg, route gavage, dose level Control; for APTT / Bas / Eos / Fbg / Hb / Ht / Lym / MCH / MCHC / MCV / Mono / Neu / PT / Plat / RBC / Ret / WBC: tissue Blood; for KIDNEY_L / KIDNEY_R / KIDNEY_TOTAL: tissue Kidney; for LIVER: tissue Liver; for A/G / ALP / ALT / AST / BUN / CRE / Ca / Cl / DBIL / GLC / IP / K / LDH / Na / PL / RALB / TBIL / TC / TG / TP / gamma-GTP: tissue Plasma

C[C@]12CCC(=O)C=C1CC[C@@H]1[C@@H]2CC[C@@]2(C)[C@H]1CC[C@]2(C)O [METHYLTESTOSTERONE]
TERMINAL_BW (72 h, time 3 day): 237.3 g
APTT (72 h, time 3 day): 16.2 s
Bas (72 h, time 3 day): 0%
Eos (72 h, time 3 day): 1.2%
Fbg (72 h, time 3 day): 280 mg/dL
Hb (72 h, time 3 day): 13.4 g/dL
Ht (72 h, time 3 day): 38.9%
Lym (72 h, time 3 day): 78.4%
MCH (72 h, time 3 day): 21.6 pg
MCHC (72 h, time 3 day): 34.4%
MCV (72 h, time 3 day): 62.7 fL
Mono (72 h, time 3 day): 2.4%
Neu (72 h, time 3 day): 17.4%
PT (72 h, time 3 day): 12.9 s
Plat (72 h, time 3 day): 119.6 x10_4/uL
RBC (72 h, time 3 day): 619.6 x10_4/ul
Ret (72 h, time 3 day): 6.7%
WBC (72 h, time 3 day): 73.9 x10_2/uL
KIDNEY_L (72 h, time 3 day): 1 g
KIDNEY_R (72 h, time 3 day): 1 g
KIDNEY_TOTAL (72 h, time 3 day): 2 g
LIVER (72 h, time 3 day): 10.9 g
A/G (72 h, time 3 day): 0.9
ALP (72 h, time 3 day): 1982.8 IU/L
ALT (72 h, time 3 day): 45.6 IU/L
AST (72 h, time 3 day): 73.2 IU/L
BUN (72 h, time 3 day): 15.2 mg/dL
CRE (72 h, time 3 day): 0.2 mg/dL
Ca (72 h, time 3 day): 10.9 mg/dL
Cl (72 h, time 3 day): 108.2 meq/L
DBIL (72 h, time 3 day): 0.014 mg/dL
GLC (72 h, time 3 day): 186.4 mg/dL
IP (72 h, time 3 day): 7.5 mg/dL
K (72 h, time 3 day): 4.2 meq/L
LDH (72 h, time 3 day): 54.4 IU/L
Na (72 h, time 3 day): 142.6 meq/L
PL (72 h, time 3 day): 142.8 mg/dL
RALB (72 h, time 3 day): 2.6 g/dL
TBIL (72 h, time 3 day): 0.028 mg/dL
TC (72 h, time 3 day): 77.8 mg/dL
TG (72 h, time 3 day): 87.2 mg/dL
TP (72 h, time 3 day): 5.6 g/dL
gamma-GTP (72 h, time 3 day): 1 IU/L
TERMINAL_BW ([…], time 7 day): 278.3 g
TERMINAL_BW ([…], time 14 day): 322 g
TERMINAL_BW ([…], time 28 day): 397.8 g
APTT ([…], time 7 day): 16.6 s
Bas ([…], time 7 day): 0%
Eos ([…], time 7 day): 0.8%
Fbg ([…], time 7 day): 272 mg/dL
Hb ([…], time 7 day): 13.4 g/dL
Ht ([…], time 7 day): 39%
Lym ([…], time 7 day): 81.8%
MCH ([…], time 7 day): 21.4 pg
MCHC ([…], time 7 day): 34.3%
MCV ([…], time 7 day): 62.6 fL
Mono ([…], time 7 day): 2.2%
Neu ([…], time 7 day): 15%
PT ([…], time 7 day): 13.1 s
Plat ([…], time 7 day): 136.7 x10_4/uL
RBC ([…], time 7 day): 623.8 x10_4/ul
Ret ([…], time 7 day): 5.6%
WBC ([…], time 7 day): 87.3 x10_2/uL
APTT ([…], time 14 day): 15.9 s
Bas ([…], time 14 day): 0.2%
Eos ([…], time 14 day): 1%
Fbg ([…], time 14 day): 288.4 mg/dL
Hb ([…], time 14 day): 14.7 g/dL
Ht ([…], time 14 day): 42.6%
Lym ([…], time 14 day): 80.6%
MCH ([…], time 14 day): 20.7 pg
MCHC ([…], time 14 day): 34.6%
MCV ([…], time 14 day): 59.8 fL
Mono ([…], time 14 day): 2.6%
Neu ([…], time 14 day): 15.4%
PT ([…], time 14 day): 12.8 s
Plat ([…], time 14 day): 112.1 x10_4/uL
RBC ([…], time 14 day): 713 x10_4/ul
Ret ([…], time 14 day): 3.6%
WBC ([…], time 14 day): 88 x10_2/uL
APTT ([…], time 28 day): 17.5 s
Bas ([…], time 28 day): 0%
Eos ([…], time 28 day): 1.2%
Fbg ([…], time 28 day): 269.8 mg/dL
Hb ([…], time 28 day): 15.7 g/dL
Ht ([…], time 28 day): 44.4%
Lym ([…], time 28 day): 78.2%
MCH ([…], time 28 day): 19.7 pg
MCHC ([…], time 28 day): 35.4%
MCV ([…], time 28 day): 55.9 fL
Mono ([…], time 28 day): 2%
Neu ([…], time 28 day): 17.6%
PT ([…], time 28 day): 13.5 s
Plat ([…], time 28 day): 106.1 x10_4/uL
RBC ([…], time 28 day): 794.6 x10_4/ul
Ret ([…], time 28 day): 2.1%
WBC ([…], time 28 day): 94.3 x10_2/uL
KIDNEY_L ([…], time 7 day): 1.2 g
KIDNEY_R ([…], time 7 day): 1.1 g
KIDNEY_TOTAL ([…], time 7 day): 2.3 g
KIDNEY_L ([…], time 14 day): 1.2 g
KIDNEY_R ([…], time 14 day): 1.2 g
KIDNEY_TOTAL ([…], time 14 day): 2.5 g
KIDNEY_L ([…], time 28 day): 1.4 g
KIDNEY_R ([…], time 28 day): 1.4 g
KIDNEY_TOTAL ([…], time 28 day): 2.8 g
LIVER ([…], time 7 day): 12.2 g
LIVER ([…], time 14 day): 13.6 g
LIVER ([…], time 28 day): 14.9 g
A/G ([…], time 7 day): 0.9
ALP ([…], time 7 day): 1755.8 IU/L
ALT ([…], time 7 day): 41.2 IU/L
AST ([…], time 7 day): 71.6 IU/L
BUN ([…], time 7 day): 16.4 mg/dL
CRE ([…], time 7 day): 0.2 mg/dL
Ca ([…], time 7 day): 11 mg/dL
Cl ([…], time 7 day): 104.8 meq/L
DBIL ([…], time 7 day): 0.018 mg/dL
GLC ([…], time 7 day): 192.4 mg/dL
IP ([…], time 7 day): 7.5 mg/dL
K ([…], time 7 day): 4 meq/L
LDH ([…], time 7 day): 68.4 IU/L
Na ([…], time 7 day): 142 meq/L
PL ([…], time 7 day): 136.4 mg/dL
RALB ([…], time 7 day): 2.7 g/dL
TBIL ([…], time 7 day): 0.028 mg/dL
TC ([…], time 7 day): 73 mg/dL
TG ([…], time 7 day): 100.6 mg/dL
TP ([…], time 7 day): 5.8 g/dL
gamma-GTP ([…], time 7 day): 1.2 IU/L
A/G ([…], time 14 day): 0.8
ALP ([…], time 14 day): 1238.8 IU/L
ALT ([…], time 14 day): 51.8 IU/L
AST ([…], time 14 day): 71.4 IU/L
BUN ([…], time 14 day): 16.4 mg/dL
CRE ([…], time 14 day): 0.2 mg/dL
Ca ([…], time 14 day): 10.6 mg/dL
Cl ([…], time 14 day): 105.8 meq/L
DBIL ([…], time 14 day): 0.018 mg/dL
GLC ([…], time 14 day): 187 mg/dL
IP ([…], time 14 day): 7 mg/dL
K ([…], time 14 day): 4.2 meq/L
LDH ([…], time 14 day): 96.2 IU/L
Na ([…], time 14 day): 141.6 meq/L
PL ([…], time 14 day): 144 mg/dL
RALB ([…], time 14 day): 2.7 g/dL
TBIL ([…], time 14 day): 0.032 mg/dL
TC ([…], time 14 day): 75.6 mg/dL
TG ([…], time 14 day): 127 mg/dL
TP ([…], time 14 day): 5.9 g/dL
gamma-GTP ([…], time 14 day): 1.2 IU/L
A/G ([…], time 28 day): 0.8
ALP ([…], time 28 day): 1136 IU/L
ALT ([…], time 28 day): 37.8 IU/L
AST ([…], time 28 day): 62.2 IU/L
BUN ([…], time 28 day): 16.4 mg/dL
CRE ([…], time 28 day): 0.2 mg/dL
Ca ([…], time 28 day): 11.3 mg/dL
Cl ([…], time 28 day): 105.4 meq/L
DBIL ([…], time 28 day): 0.016 mg/dL
GLC ([…], time 28 day): 182.6 mg/dL
IP ([…], time 28 day): 6.2 mg/dL
K ([…], time 28 day): 3.9 meq/L
LDH ([…], time 28 day): 59.8 IU/L
Na ([…], time 28 day): 143 meq/L
PL ([…], time 28 day): 127.8 mg/dL
RALB ([…], time 28 day): 2.8 g/dL
TBIL ([…], time 28 day): 0.03 mg/dL
TC ([…], time 28 day): 63.4 mg/dL
TG ([…], time 28 day): 120.6 mg/dL
TP ([…], time 28 day): 6.2 g/dL
gamma-GTP ([…], time 28 day): 0.8 IU/L
